Measurements: patent publication US20230218765A1, “SMALL MOLECULE DEGRADERS OF SHP2 PROTEIN” (THE REGENTS OF THE UNIVERSITY OF MICHIGAN, priority 2020, published 2023)
Where two headings read alike, the source gives them in different places. Blank lines part the entries; values can stand above or below the molecule they belong to.

Tests used:
[1] = target: T1, SHP2 (Homo sapiens, UniProt Q06124); assay: SHP2 allosteric inhibition assay; format: biochemical; details: 0.5 nM SHP2, 0.5 µM bisphosphorylated IRS1 peptide, DiFMUP substrate
T1 sequence (Q06124 1-593): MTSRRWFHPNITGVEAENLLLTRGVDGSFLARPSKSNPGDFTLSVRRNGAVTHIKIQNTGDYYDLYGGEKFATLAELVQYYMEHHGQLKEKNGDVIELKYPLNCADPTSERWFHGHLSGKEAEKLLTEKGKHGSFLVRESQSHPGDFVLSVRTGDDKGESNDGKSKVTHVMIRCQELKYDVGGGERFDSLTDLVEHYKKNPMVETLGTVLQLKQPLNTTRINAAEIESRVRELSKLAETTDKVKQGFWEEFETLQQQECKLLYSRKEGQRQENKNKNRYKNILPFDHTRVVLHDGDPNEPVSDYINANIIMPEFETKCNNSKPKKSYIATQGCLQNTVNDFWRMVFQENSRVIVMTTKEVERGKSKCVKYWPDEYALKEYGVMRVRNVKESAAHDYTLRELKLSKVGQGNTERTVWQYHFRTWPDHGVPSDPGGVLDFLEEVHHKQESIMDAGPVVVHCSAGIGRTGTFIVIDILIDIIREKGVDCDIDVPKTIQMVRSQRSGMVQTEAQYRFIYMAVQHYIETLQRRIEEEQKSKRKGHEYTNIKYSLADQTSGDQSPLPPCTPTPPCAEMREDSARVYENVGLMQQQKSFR
Method: Assay buffer conditions: 60 mM HEPES, pH 7.2, 75 mM NaCl, 75 mM KCl, 0.05% P-20, 5 mM DTT,1 mM EDTA. 0.5 nM of SHP2 was incubated with 0.5 µM of bisphosphorylated IRS1 peptide and 100 µM (top concentration 3X dilution) of the inhibitory compounds. After incubation 60 min at RT, 5 µl 200 µM substrate DiFMUP (Invitrogen) was added and incubated another 30 min at RT. […] The fluorescence signal was detected by CLARIOstar (BMG tech), excitation wavelength was 340 nm and emission wavelength was 450 nm. The inhibitor dose-response curves were analyzed by Graphpad Prism 8.

[2] = test system: MV4;11 cell line; assay: Cell growth assay (WST-8) in MV4;11; format: cell-based; details: for IC50: MV4;11, 4 days, read-out: IC50, cell growth inhibition
Method: (§1) Cell viability was evaluated with a WST-8 assay (Dojindo) following the manufacturer’s instructions. Briefly, cells were seeded in 96-well cell culture plates at a density of 10,000-20,000 cells/well in 200 µL for MV4;11 cell line or 2,000-3,000 for KYSE-520 cell line of culture medium containing serial dilution of testing compounds. After 4 days of treatment, cell growth was measured by a lactate dehydrogenase-based WST-8 assay (Dojindo Molecular Technologies) using a Tecan Infinite M-1000 multimode microplate reader (Tecan US, Morrisville, NC). The WST-8 reagent was added to each well, and cells were incubated for an additional 1-2 h and read at 450 nm. The readings were normalized to the vehicle-treated cells, and the IC50 was calculated by nonlinear regression analysis using the GraphPad Prism 6 software.
(§2) Briefly, Cells were treated with indicated doses for 4 days and cell viability was determined by a colorimetric WST-8 assay.

[3] = test system: KYSE520 cell line; assay: Cell growth assay (WST-8) in KYSE520; format: cell-based; details: for IC50: KYSE520, 4 days, read-out: IC50, cell growth inhibition
Method: as §1, §2

[4] = test system: phosphorylation of ERK; assay: Inhibition of ERK phosphorylation (Western blot) in MV4;11 cells; format: cell-based; details: for concentration for complete inhibition of pERK: MV4;11, 48 h
Method: (§3) Western blotting and quantification were performed with regular western blot method and band quantification was performed using ImageJ. Treated cells were lysed by RIPA buffer supplemented with protease and phosphatase inhibitors. The cell lysates were separated by 4-12% SDS-PAGE gels and blotted into PVDF (polyvinylidene difluoride) membranes. The net protein bands and loading controls are calculated by deducting the background from the inverted band value. The final relative quantification values are the ratio of the net band to net loading control.
(§4) GAPDH was used as a loading control. (FIG. 3A and FIG. 3B).

[5] = target: T1, SHP2; assay: SHP2 degradation by Western blot in KYSE520 cells
Method: (§5) Western blotting and quantification were performed with regular western blot method and band quantification was performed using ImageJ. Treated cells were lysed by RIPA buffer supplemented with protease and phosphatase inhibitors. […] The net protein bands and loading controls are calculated by deducting the background from the inverted band value. The final relative quantification values are the ratio of the net band to net loading control.
(§6) The treated cells were harvested and the level of SHP2 protein was examined by blot analysis. GAPDH was used as a loading control.
(§7) SHP2 protein was examined by Western blotting and the protein level was quantified by densitometry and normalized to the corresponding density of the GAPDH protein. […] Cells were treated with 100 nM of SHP2-D26 for different times. SHP2 protein was examined by Western blotting and the GAPDH protein was used as the loading control.

[6] = target: T1, SHP2; assay: SHP2 degradation by Western blot in MV4;11 cells
Method: as §5, §6, §7

[7] = test system: phosphorylation of ERK; assay: Inhibition of ERK phosphorylation (Western blot) in KYSE520 cells; format: cell-based; details: for concentration effective in reducing the level of pERK: KYSE520, 48 h
Method: as §3, §4

- IC50 [1]: 98.7 nM
- IC50 ([2]; Homo sapiens, 96 h): 6600 nM
Compound: CC(=O)Nc1cccc(Sc2ncc(N3CCC(C)(N)CC3)nc2N)c1Cl [Compound 5, N-(3-((3-amino-5-(4-amino-4-methylpiperidin-l-yl)pyrazin-2-yl)t′hio)-2-chlorophenyl)acetamide]
- IC50 ([3]; Homo sapiens, KYSE-520, 96 h): 39400 nM

- IC50 ([2]; Homo sapiens, 96 h): 9.9 nM
- % of SHP2 protein degradation in KYSE520 cell line ([5]; 0.1 µM): >95%
- % of SHP2 protein degradation in KYSE520 cell line ([5]; 1 µM): >95%
- time to reduce the SHP2 protein level ([5]; KYSE520, 100 nM): ≤ 4 h
- treatment time for essentially complete SHP2 depletion ([5]; KYSE520, 100 nM): 8 h
- DC50 ([5]; read-out: DC50 (concentration needed to induced targeted protein degradation by 50%), KYSE520, 12 h): 6 nM
- % of SHP2 protein degradation in MV4;11 cell line ([6]; 0.1 µM): >95%
- DC50 ([6]; read-out: DC50 (concentration needed to induced targeted protein degradation by 50%), MV4;11, 12 h): 2.6 nM
Compound: Cc1ncsc1-c1ccc([C@@H](C)NC(=O)[C@H]2C[C@H](O)CN2C(=O)[C@H](NC(=O)CCCCCCCCN2CCN(C(=O)CCC(=O)Nc3cccc(Sc4ncc(N5CCC(C)(N)CC5)nc4N)c3Cl)CC2)C(C)(C)C)cc1 [Compound 26]
- times more potent than SHP099 in cell growth inhibition ([2]; MV4;11): 100 times
- times more potent than compound 4 in cell growth inhibition ([2]; MV4;11): > 400 times
- times more potent than compound 5 in cell growth inhibition ([2]; MV4;11): > 600 times
- times more potent than SHP099 in inhibition of pERK ([4]; MV4;11): > 30 times
- concentration for complete inhibition of pERK [4]: 100 nM
- IC50 ([3]; Homo sapiens, KYSE-520, 96 h): 660 nM
- times more potent than SHP099 in inhibiting cell growth ([3]; KYSE520): 28 times
- times more potent than compound 4 in inhibiting cell growth ([3]; KYSE520): 64 times
- times more potent than compound 5 in inhibiting cell growth ([3]; KYSE520): 60 times
- times more potent than SHP099 in inhibition of pERK ([7]; KYSE520): > 30 times
- concentration effective in reducing the level of pERK [7]: 100 nM

- IC50 [2]: 1000 nM
Compound: CC1(N)CCN(c2cnc(-c3cccc(Cl)c3Cl)c(N)n2)CC1 [SHP099, reference compound]
- concentration for complete inhibition of pERK [4]: > 3,000 nM
- IC50 [3]: 18200 nM
- concentration effective in reducing the level of pERK [7]: > 3,000 nM
